Experimental data as given in US20240245051A1, “DISINFECTING, ANTIMICROBIAL AND PRESERVATIVE COMPOSITION” (BJBIOCHEM CO., LTD., priority 2021, published 2024).

What was measured:
Assay in all cases: Antimicrobial test, broth dilution method (MIC)
Type in all cases: cell-based
Conditions in all cases: single compounds of Comparative Examples
A. niger = tested on: A. niger
Protocol: (§1) The antimicrobial activity of the test solution was measured using a broth dilution method. The concentration of the test solution that was treated was diluted from the highest concentration of 5% to the lowest concentration of 0.0001%. The test solution was cultured in the presence of the strain and then the turbidity of the tube was determined. […] After the primary test described as above, the concentration of the test solution that was treated was further subdivided and a secondary test was conducted to obtain an accurate minimum inhibitory concentration (MIC).
(§2) Test strains E. coli, S. aureus, and P. aeruginosa were inoculated into tryptic soy broth and incubated at 35±2° C. for 16 to 24 hours. C. albicans was inoculated into Sabouraud dextrose broth and cultured at 35° C. for 24 hours. A. niger was seeded on potato dextrose agar and cultured at (25±1°) C for 7 days, sterile physiological saline was dispensed into a solid medium on which the bacteria grew, and spores were removed using a spreader and then diluted in sterile physiological saline.
(§3) A liquid medium was put into the tube and the concentration of the test solution that was treated was diluted from the highest concentration of 5% to the lowest concentration of 0.0001%. The liquid media used for E. coli, S. aureus, and P. aeruginosa (bacteria) were tryptic soy broth, and the liquid media used for C. albicans, and A. niger (fungi) were Sabouraud dextrose broth.
(§4) E. coli, S. aureus, and P. aeruginosa of the strains were inoculated at a concentration of 1×10^5 CFU/mL in the test tube. The tubes treated with the test solution were incubated at 35±2° C. for 16 to 24 hours. C. albicans and A. niger were inoculated at a concentration of 1×10^4 CFU/mL in the test tube. After treatment with the test solution was completed, C. albicans was cultured at 35° C. for 24 to 48 hours and A. niger was cultured at 25° C. for 46 to 50 hours. A medium tube, to which the bacterial solution was not added, was used as a negative control, and a tube containing the medium inoculated with only the bacterial solution without the test solution was used as a growth control. In addition, in order to determine the antimicrobial activity of dipropylene glycol itself used as a solvent, the MIC of the test bacteria for the solvent was measured under the same conditions as in the sample.

E. coli = tested on: E. coli
Protocol: as §1, §2, §3, §4

S. aureus = tested on: S. aureus
Protocol: as §1, §2, §3, §4

P. aeruginosa = tested on: P. aeruginosa
Protocol: as §1, §2, §3, §4

C. albicans = tested on: C. albicans
Protocol: as §1, §2, §3, §4

Compound	minimum inhibitory concentration (MIC), A. niger (A. niger) [%]	minimum inhibitory concentration (MIC), E. coli (E. coli) [%]	minimum inhibitory concentration (MIC), S. Aureus (S. aureus) [%]	minimum inhibitory concentration (MIC), P. Aeruginosa (P. aeruginosa) [%]	minimum inhibitory concentration (MIC), C. albicans (C. albicans) [%]
CCCCC(CC)COCC(O)CO (centres unmarked) [Comparative Example 7, Ethylhexylglycerin]	0.5	0.3	0.15	2	0.5
CC(=O)c1ccc(O)cc1 [Comparative Example 13, 4-hydroxy acetophenone]	0.5	0.15	0.2	0.1	0.1
CCCCCCCCOCC(O)CO (centres unmarked) [Comparative Example 6, Octyl glycerin]	0.5	0.5	0.5	0.5	0.25
CCCCC(O)CO (centres unmarked) [Comparative Example 2, Hexane-1,2-diol]	0.5	1	2	1	2
O=C([O-])c1ccccc1.[Na+] [Comparative Example 14, Sodium benzoate]	0.1	0.016	0.002	0.016	0.12
CCCCCCCCCCCC(=O)NC(CCCN=C(N)N)C(=O)OCC (centres unmarked) [Comparative Example 19, Lauroyl arginine ethyl ester]	0.003	0.003	0.003	0.003	0.001
OCCOc1ccccc1 [Comparative Example 15, Phenoxy EtOH]	0.12	0.06	0.06	0.09	0.12
CCCCCCCCCCCCNCC(O)CO (centres unmarked) [Comparative Example 1, (3-dodecylamino)propane-1,2-diol]	0.09	0.01	0.01	0.03	0.01
OCCCc1ccccc1 [Comparative Example 12, 3-phenyl-1-propanol]	0.03	0.4	0.4	0.2	0.03
Disodium EDTA [Comparative Example 23]	0.15	0.1	0.1	0.15	0.05
CCCCCCCCC(O)CO (centres unmarked) [Comparative Example 4, Decane-1,2-diol]	0.006	0.09	0.025	0.045	0.011
COc1ccccc1/C=C/C=O [Comparative Example 10, 2-methoxycinnamaldehyde]	0.005	0.02	0.02	0.4	0.005
COc1ccc(C(=O)O)cc1 [Comparative Example 22, Sodium anisate]	0.1	0.05	0.01	0.05	0.1
O=C/C=C/c1ccccc1 [Comparative Example 9, Cinnamaldehyde]	0.03	0.05	0.03	0.1	0.02
CCCCCCOCC(O)CO (centres unmarked) [Comparative Example 5, Hexyl glycerin]	0.32	0.2	0.5	0.5	0.64
CCCCCCC(O)CO (centres unmarked) [Comparative Example 3, Octane-1,2-diol]	0.3	0.25	0.5	0.5	0.5
O=C([O-])CN(CCN(CC(=O)[O-])CC(=O)[O-])CC(=O)[O-].[Na+].[Na+].[Na+].[Na+] [Comparative Example 24, Tetrasodium EDTA]	0.15	0.1	0.1	0.15	0.05
CC(=O)CCC(=O)O [Comparative Example 20, Levulinic acid]	0.15	0.02	0.02	0.1	0.1
Citric acid [Comparative Example 21]	0.2	0.1	0.1	0.1	0.05
CCCCCCCC(=O)NO [Comparative Example 17, Caprylhydroxamic acid]	0.02	0.06	0.06	0.12	0.03
Cc1cc(CC(C)CC(C)(C)C)n(O)c(=O)c1 (centres unmarked) [Comparative Example 18, Piroctone olamine]	0.3	0.05	0.05	0.2	0.2
CC(=O)CCc1ccc(O)cc1 [Comparative Example 11, Raspberry ketone]	0.5	0.5	0.1	0.1	1
